# From ChEMBL document CHEMBL1129897 (Bioorg Med Chem Lett, 1997)
# Target: 5-hydroxytryptamine receptor 2A (Rattus norvegicus, UniProt P14842)
# Assay: Tested in vitro for its ability to inhibit [3H]ketanserin binding to 5-hydroxytryptamine 2A receptor in rat frontal cortex membranes
# Type: cell membranes, Membrane
# Sequence of 5-hydroxytryptamine receptor 2A (P14842 whole entry): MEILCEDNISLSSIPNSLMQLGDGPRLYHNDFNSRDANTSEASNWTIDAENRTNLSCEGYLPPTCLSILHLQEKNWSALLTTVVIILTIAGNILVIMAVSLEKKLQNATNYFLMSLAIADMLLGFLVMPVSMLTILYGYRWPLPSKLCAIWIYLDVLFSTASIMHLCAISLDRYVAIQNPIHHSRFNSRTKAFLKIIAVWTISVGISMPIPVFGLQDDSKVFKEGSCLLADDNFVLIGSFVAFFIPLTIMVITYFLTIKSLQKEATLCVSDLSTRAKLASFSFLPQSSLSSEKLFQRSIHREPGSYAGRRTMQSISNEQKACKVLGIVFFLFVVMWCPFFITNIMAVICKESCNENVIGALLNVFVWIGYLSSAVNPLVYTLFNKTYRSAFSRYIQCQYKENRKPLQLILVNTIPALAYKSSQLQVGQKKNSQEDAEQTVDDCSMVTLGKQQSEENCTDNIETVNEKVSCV
row,Ki,Structure (SMILES)
1,5.01 nM,CCc1c(C)[nH]c2c1C(=O)CC(CN1CCC(c3noc4cc(F)ccc34)CC1)C2 (centres undefined)
2,282 nM,CCc1c(C)[nH]c2c1C(=O)CC(CN1CCN(c3ccccc3OC)CC1)C2 (centres undefined)
3,6.17 nM,CCc1c(C)[nH]c2c1C(=O)CC(CN1CCC(C(=O)c3ccc(F)cc3)CC1)C2 (centres undefined)
4,398 nM,CCc1c(C)[nH]c2c1C(=O)CC(CN1CCN(CCCC(=O)c3ccc(F)cc3)CC1)C2 (centres undefined)
